These results are taken from paper PMC2955773 (ACS chemical biology, 2010).

Where two headings read alike, the source gives them in different places.

The target of one test is T1, Nox1 (Homo sapiens, UniProt Q9Y5S8).
T1 sequence (Q9Y5S8 1-564): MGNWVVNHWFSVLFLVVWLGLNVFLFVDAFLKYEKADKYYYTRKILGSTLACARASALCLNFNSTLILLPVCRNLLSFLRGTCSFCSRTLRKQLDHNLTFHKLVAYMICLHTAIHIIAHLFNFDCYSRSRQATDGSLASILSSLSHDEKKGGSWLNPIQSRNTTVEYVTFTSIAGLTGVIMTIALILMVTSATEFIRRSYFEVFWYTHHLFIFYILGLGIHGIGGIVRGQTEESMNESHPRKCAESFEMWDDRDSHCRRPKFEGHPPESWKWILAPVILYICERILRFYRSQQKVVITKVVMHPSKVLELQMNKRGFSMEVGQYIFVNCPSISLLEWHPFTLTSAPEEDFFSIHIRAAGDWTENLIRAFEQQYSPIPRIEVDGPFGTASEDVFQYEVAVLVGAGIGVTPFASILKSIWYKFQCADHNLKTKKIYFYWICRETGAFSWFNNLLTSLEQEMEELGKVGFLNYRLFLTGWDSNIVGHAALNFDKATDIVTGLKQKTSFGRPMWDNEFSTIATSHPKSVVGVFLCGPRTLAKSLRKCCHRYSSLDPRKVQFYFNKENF
T1 sequence (P13498 2-195 partner limits assumed): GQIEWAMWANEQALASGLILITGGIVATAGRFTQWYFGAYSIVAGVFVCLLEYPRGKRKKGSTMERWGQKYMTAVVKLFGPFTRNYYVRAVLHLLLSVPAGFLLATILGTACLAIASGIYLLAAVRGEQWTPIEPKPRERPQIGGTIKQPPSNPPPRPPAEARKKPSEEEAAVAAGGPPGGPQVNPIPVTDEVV
Put plainly: Luminol-based chemiluminescence. It counts as cell-based. The settings on record: for ability to block Nox1-dependent ROS generation: HT29 cells, luminol-based CL assay.

Another test concerns DLD1 cells. Put plainly: SrcYF-induced invadopodia formation. Format: cell-based, human. The settings on record: SrcYF-transfected DLD1 cells, treated 1hr; ML171 10 μM.
The mark [1] stands for this setting: read-out: Micromolar IC50 HT29 Assay, HT29 cell-based assay, ROS generation, SAR study.
The mark [2] stands for this setting: HT29 cell-based assay, ROS generation, SAR study.

The IC50 is the concentration needed to halve the response being measured. Consider `CCOC(=O)Nc1ccc2c(c1)Nc1ccccc1S2` [SR-01000477673-3], for which, on Nox1 (setting [1]), the IC50 was determined as 920 nM.
Consider `CN1CCN(CCCN2c3ccccc3Sc3ccc(C(F)(F)F)cc32)CC1` [trifluperazine, reference compound], for which, on Nox1, the “ability to block Nox1-dependent ROS generation” value is given as “unable to block Nox1-dependent ROS generation”.
For the molecule `c1ccc2c(c1)Nc1ccccc1S2` [SR-01000721844-3], at Nox1 (setting [1]), the IC50 was determined as 370 nM.
With `COc1ccc2c(c1)Sc1ccc(Cl)cc1N2` [SR-03000000698-1], the IC50 at Nox1 (setting [1]) came to 177 nM.
Same read-out and setting: as for `Cc1ccc(S(=O)(=O)c2ccc3c(c2)Sc2ccc(Cl)cc2N3)cc1` [SR-03000000707-1], the figure is 5300 nM.
On the same count and under the same terms, in the case of `Clc1ccc2c(c1)Nc1ccccc1S2` [SR-01000596948-2] it was 250 nM; in that of `COc1ccc2c(c1)Sc1ccccc1N2` [SR-01000025134-3], 940 nM.
Turning to `CC(O)c1ccc2c(c1)Nc1ccccc1S2` (stereo not drawn) [SR-03000000760-1], on Nox1 (setting [1]), the IC50 came out at 360 nM.
As to `CN(C)CCCN1c2ccccc2Sc2ccc(C(F)(F)F)cc21` [SR-01000000224-4, Triflupromazine, reference compound], the “Micromolar IC50 HT29 Assay” value at Nox1 (setting [2]) is on record as “Inactive (AID 2808)”.
Consider `Cl.Cl.OCCN1CCN(CCCN2c3ccccc3Sc3ccc(C(F)(F)F)cc32)CC1` [SR-01000003048-5, Fluorophenazine, reference compound], for which, at Nox1 (setting [2]), the “Micromolar IC50 HT29 Assay” value is on record as “Inactive (AID 2808)”.
In the case of `O=[N+]([O-])c1ccc2c(c1)Sc1ccc(C(F)(F)F)cc1N2` [SR-03000000695-1], the 50% inhibitory concentration (IC50) on Nox1 (setting [1]) stood at 1400 nM.
Take `CN(C)CCCN1c2ccccc2Sc2ccc(Cl)cc21` [chlorpromazine, reference compound]: the IC50 at Nox1 was over 50000 nM. At Nox1 (setting [2]), the “Micromolar IC50 HT29 Assay” value is reported as “Inactive (AID 2808)”. In the test with DLD1 cells, the invadopodia formation result was “did not observe a decreased ability of DLD1 cells to form cortactin-positive, F-actin-rich invadopodia”.
Consider `CN1CCN(CCCN2c3ccccc3Sc3ccc(C(F)(F)F)cc32)CC1.Cl.Cl` [SR-01000003020-6], for which the “Micromolar IC50 HT29 Assay” value on Nox1 (setting [2]) is listed as “Inactive (AID 2808)”.
Same read-out and setting: in the case of `OCCN1CCN(CCCN2c3ccccc3Sc3ccc(Cl)cc32)CC1` [SR-01000000137-4] it was “Inactive (AID 2808)”.
With `OCCN1CCN(CCCN2c3ccccc3Sc3ccc(Cl)cc32)CC1` [perphenazine, reference compound], the “ability to block Nox1-dependent ROS generation” value on Nox1 is reported as “unable to block Nox1-dependent ROS generation”.
Turning to `CN(C)CCCN1c2ccccc2Sc2ccccc21` [SR-01000000228-4, promazine, reference compound], the “Micromolar IC50 HT29 Assay” value at Nox1 (setting [2]) was “Inactive (AID 2808)”.
